{"source": "ChEMBL document CHEMBL5150033", "about": "“Synthesis, evaluation and mechanism exploration of 2-(N-(3-nitrophenyl)-N-phenylsulfonyl)aminoacetohydroxamic acids as novel urease inhibitors” (Bioorg Med Chem Lett, 2022)", "key": {"[1]": {"target": "T1, Urease subunit alpha/Urease subunit beta (Helicobacter pylori (strain ATCC 700392 / 26695) (Campylobacterpylori), UniProt P69996)", "T1 sequence (P69996 whole entry)": "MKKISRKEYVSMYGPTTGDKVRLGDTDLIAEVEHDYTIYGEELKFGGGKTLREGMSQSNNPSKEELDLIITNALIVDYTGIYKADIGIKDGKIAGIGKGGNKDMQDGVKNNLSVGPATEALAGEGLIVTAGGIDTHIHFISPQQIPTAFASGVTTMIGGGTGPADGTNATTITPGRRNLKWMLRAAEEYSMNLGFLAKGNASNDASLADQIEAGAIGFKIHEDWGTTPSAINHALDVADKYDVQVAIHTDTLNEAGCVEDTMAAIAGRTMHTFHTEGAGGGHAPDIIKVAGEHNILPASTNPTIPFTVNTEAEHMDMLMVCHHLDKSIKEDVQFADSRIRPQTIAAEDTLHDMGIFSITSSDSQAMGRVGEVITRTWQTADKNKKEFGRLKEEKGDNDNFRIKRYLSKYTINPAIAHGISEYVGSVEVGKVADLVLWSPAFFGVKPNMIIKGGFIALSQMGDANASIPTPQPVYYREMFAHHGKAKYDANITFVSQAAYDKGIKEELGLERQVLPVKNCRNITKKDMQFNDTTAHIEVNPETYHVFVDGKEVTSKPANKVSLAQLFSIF", "T1 sequence (P14916 whole entry, further chain)": "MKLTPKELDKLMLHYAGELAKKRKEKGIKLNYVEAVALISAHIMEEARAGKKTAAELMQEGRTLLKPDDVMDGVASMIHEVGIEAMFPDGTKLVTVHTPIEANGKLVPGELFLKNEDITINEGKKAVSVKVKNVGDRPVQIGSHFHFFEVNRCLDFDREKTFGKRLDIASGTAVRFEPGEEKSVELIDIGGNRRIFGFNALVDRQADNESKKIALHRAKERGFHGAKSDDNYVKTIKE", "experiment": "Inhibition of Helicobacter pylori urease", "type": "protein-complex assay"}, "HepG2": {"tested_on": "HepG2", "experiment": "Antiproliferative activity against human HepG2 cells assessed as reduction in cell viability at 250 ug/ml by MTT assay relative to control", "type": "functional", "conditions": "dose 250 µg/ml"}, "SGC-7901": {"tested_on": "SGC-7901", "experiment": "Antiproliferative activity against human SGC-7901 cells assessed as reduction in cell viability at 250 ug/ml by MTT assay relative to control", "type": "functional", "conditions": "dose 250 µg/ml"}, "K562": {"tested_on": "K562", "experiment": "Antiproliferative activity against human K562 cells assessed as reduction in cell viability at 250 ug/ml by MTT assay relative to control", "type": "functional", "conditions": "dose 250 µg/ml"}, "[2]": {"target": "T2, Urease subunit alpha/Urease subunit beta (Helicobacter pylori (strain ATCC 700392 / 26695) (Campylobacterpylori)) (UniProt P69996+P14916)", "T2 sequence (P14916 whole entry, looked up)": "as the sequence (P14916 whole entry, further chain) above", "T2 sequence (P69996 whole entry, looked up)": "as the sequence (P69996 whole entry) above", "experiment": "Potency index, ratio of acetohydroxamic acid IC50 to test compound IC50 for inhibition of Helicobacter pylori urease", "type": "protein-complex assay"}, "[3]": {"target": "T1, Urease subunit alpha/Urease subunit beta", "experiment": "Binding affinity to Helicobacter pyroli urease assessed as dissociation constant by surface plasmon resonance assay", "type": "protein-complex assay"}, "[4]": {"target": "T1, Urease subunit alpha/Urease subunit beta", "experiment": "Mixed type inhibition of Helicobacter pyroli urease assessed as dissociation constant for EI complex by microplate reader analysis", "type": "protein-complex assay"}, "[5]": {"target": "T1, Urease subunit alpha/Urease subunit beta", "experiment": "Mixed type inhibition of Helicobacter pyroli urease assessed as dissociation constant for ESI complex by microplate reader analysis", "type": "protein-complex assay"}, "[6]": {"target": "T2, Urease subunit alpha/Urease subunit beta (Helicobacter pylori (strain ATCC 700392 / 26695) (Campylobacterpylori))", "experiment": "Inhibition of Helicobacter pyroli urease at 100 ug/ml […]", "type": "protein-complex assay", "conditions": "dose 100.0 µg/ml, time <= 120.0 min, TDE = time-dependent effect"}, "[7]": {"target": "T2, Urease subunit alpha/Urease subunit beta (Helicobacter pylori (strain ATCC 700392 / 26695) (Campylobacterpylori))", "experiment": "Inhibition of Helicobacter pyroli urease assessed as maximum inhibition at 100 ug/ml measured after 50 mins […]", "type": "protein-complex assay", "conditions": "dose 100.0 µg/ml"}}, "note": "Calls of active or inactive are those of the source. No cut-off for these calls is given here.", "data": [{"smiles": "O=C(CN(c1cccc([N+](=O)[O-])c1)S(=O)(=O)c1ccccc1Cl)NO", "values": [{"measurement": "IC50", "setting": "[1]", "result": 22, "unit": "µM"}, {"measurement": "Activity", "setting": "HepG2", "result": 93, "unit": "%"}, {"measurement": "Activity", "setting": "SGC-7901", "result": 90, "unit": "%"}, {"measurement": "Activity", "setting": "K562", "result": 91, "unit": "%"}]}, {"smiles": "O=C(CN(c1cccc([N+](=O)[O-])c1)S(=O)(=O)c1ccccc1)NO", "values": [{"measurement": "IC50", "setting": "[1]", "result": 2.41, "unit": "µM"}, {"measurement": "Activity", "setting": "HepG2", "result": 83, "unit": "%"}, {"measurement": "Activity", "setting": "SGC-7901", "result": 79, "unit": "%"}, {"measurement": "Activity", "setting": "K562", "result": 76, "unit": "%"}]}, {"smiles": "O=C(CN(c1cccc([N+](=O)[O-])c1)S(=O)(=O)c1cccc(F)c1)NO", "values": [{"measurement": "IC50", "setting": "[1]", "result": 0.74, "unit": "µM"}, {"measurement": "Activity", "setting": "HepG2", "result": 89, "unit": "%"}, {"measurement": "Activity", "setting": "SGC-7901", "result": 90, "unit": "%"}, {"measurement": "Activity", "setting": "K562", "result": 93, "unit": "%"}, {"measurement": "Ratio IC50", "setting": "[2]", "result": 35}]}, {"smiles": "Cc1ccccc1S(=O)(=O)N(CC(=O)NO)c1cccc([N+](=O)[O-])c1", "values": [{"measurement": "IC50", "setting": "[1]", "result": 7.1, "unit": "µM"}, {"measurement": "Activity", "setting": "HepG2", "result": 87, "unit": "%"}, {"measurement": "Activity", "setting": "SGC-7901", "result": 90, "unit": "%"}, {"measurement": "Activity", "setting": "K562", "result": 90, "unit": "%"}]}, {"smiles": "O=C(CN(c1cccc([N+](=O)[O-])c1)S(=O)(=O)c1cc(F)ccc1F)NO", "values": [{"measurement": "IC50", "setting": "[1]", "result": 16.4, "unit": "µM"}, {"measurement": "Activity", "setting": "HepG2", "result": 89, "unit": "%"}, {"measurement": "Activity", "setting": "SGC-7901", "result": 92, "unit": "%"}, {"measurement": "Activity", "setting": "K562", "result": 88, "unit": "%"}]}, {"smiles": "O=C(CN(c1cccc([N+](=O)[O-])c1)S(=O)(=O)c1ccccc1F)NO", "values": [{"measurement": "IC50", "setting": "[1]", "result": 6.9, "unit": "µM"}, {"measurement": "Activity", "setting": "HepG2", "result": 80, "unit": "%"}, {"measurement": "Activity", "setting": "SGC-7901", "result": 92, "unit": "%"}, {"measurement": "Activity", "setting": "K562", "result": 87, "unit": "%"}]}, {"smiles": "O=C(CN(c1cccc([N+](=O)[O-])c1)S(=O)(=O)c1ccc(Br)cc1)NO", "values": [{"measurement": "IC50", "setting": "[1]", "result": 0.13, "unit": "µM"}, {"measurement": "Activity", "setting": "HepG2", "result": 91, "unit": "%"}, {"measurement": "Activity", "setting": "SGC-7901", "result": 86, "unit": "%"}, {"measurement": "Activity", "setting": "K562", "result": 87, "unit": "%"}, {"measurement": "Ratio IC50", "setting": "[2]", "result": 200}, {"measurement": "Kd", "setting": "[3]", "result": 0.00034, "unit": "µM"}, {"measurement": "Ki", "setting": "[4]", "result": 0.065, "unit": "µM"}, {"measurement": "Ki", "setting": "[5]", "result": 1.2, "unit": "µM"}, {"measurement": "inhibition", "setting": "[6]", "result": "Tde"}, {"measurement": "inhibition", "setting": "[7]", "result": "Active"}]}, {"smiles": "O=C(CN(c1cccc([N+](=O)[O-])c1)S(=O)(=O)c1cc(Cl)ccc1Cl)NO", "values": [{"measurement": "IC50", "setting": "[1]", "result": 27.5, "unit": "µM"}, {"measurement": "Activity", "setting": "HepG2", "result": 80, "unit": "%"}, {"measurement": "Activity", "setting": "SGC-7901", "result": 81, "unit": "%"}, {"measurement": "Activity", "setting": "K562", "result": 84, "unit": "%"}]}, {"smiles": "Cc1cc(C)c(S(=O)(=O)N(CC(=O)NO)c2cccc([N+](=O)[O-])c2)c(C)c1", "values": [{"measurement": "IC50", "setting": "[1]", "result": 96.4, "unit": "µM"}, {"measurement": "Activity", "setting": "HepG2", "result": 87, "unit": "%"}, {"measurement": "Activity", "setting": "SGC-7901", "result": 85, "unit": "%"}, {"measurement": "Activity", "setting": "K562", "result": 94, "unit": "%"}]}, {"smiles": "CC(=O)NO", "note": "[ACETOHYDROXAMIC ACID]", "values": [{"measurement": "IC50", "setting": "[1]", "result": 26.3, "unit": "µM"}, {"measurement": "Activity", "setting": "HepG2", "result": 76, "unit": "%"}, {"measurement": "Activity", "setting": "SGC-7901", "result": 72, "unit": "%"}, {"measurement": "Activity", "setting": "K562", "result": 64, "unit": "%"}]}, {"smiles": "O=C(CN(c1cccc([N+](=O)[O-])c1)S(=O)(=O)c1ccc(C(F)(F)F)cc1)NO", "values": [{"measurement": "IC50", "setting": "[1]", "result": 9.57, "unit": "µM"}, {"measurement": "Activity", "setting": "HepG2", "result": 93, "unit": "%"}, {"measurement": "Activity", "setting": "SGC-7901", "result": 90, "unit": "%"}, {"measurement": "Activity", "setting": "K562", "result": 87, "unit": "%"}]}, {"smiles": "O=C(CN(c1cccc([N+](=O)[O-])c1)S(=O)(=O)c1ccc(Cl)cc1)NO", "values": [{"measurement": "IC50", "setting": "[1]", "result": 1.75, "unit": "µM"}, {"measurement": "Activity", "setting": "HepG2", "result": 86, "unit": "%"}, {"measurement": "Activity", "setting": "SGC-7901", "result": 89, "unit": "%"}, {"measurement": "Activity", "setting": "K562", "result": 88, "unit": "%"}]}, {"smiles": "Cc1ccc(S(=O)(=O)N(CC(=O)NO)c2cccc([N+](=O)[O-])c2)cc1", "values": [{"measurement": "IC50", "setting": "[1]", "result": 5.91, "unit": "µM"}, {"measurement": "Activity", "setting": "HepG2", "result": 80, "unit": "%"}, {"measurement": "Activity", "setting": "SGC-7901", "result": 84, "unit": "%"}, {"measurement": "Activity", "setting": "K562", "result": 86, "unit": "%"}]}, {"smiles": "O=C(CN(c1cccc([N+](=O)[O-])c1)S(=O)(=O)c1ccc(F)cc1)NO", "values": [{"measurement": "IC50", "setting": "[1]", "result": 3.33, "unit": "µM"}, {"measurement": "Activity", "setting": "HepG2", "result": 91, "unit": "%"}, {"measurement": "Activity", "setting": "SGC-7901", "result": 90, "unit": "%"}, {"measurement": "Activity", "setting": "K562", "result": 92, "unit": "%"}]}]}
